Where two headings read alike, the source gives them in different places. *1 amine or outer side, *2 acyl side, *3 side chain or, on linkers, in order; H or OH if unused. Where no end group is shown, it is not given here. Side-chain parts run from the residue outwards. [ ]: non-standard residue; d: D form. The star is where a group is joined. C18 diacid = O=C(O)CCCCCCCCCCCCCCCCC(=O)*; γGlu = O=C(O)[C@H](CCC(=O)[*:2])N[*:1]; AEEA = NCCOCCOCC(=O)O; Aib = CC(C)(N)C(=O)O
Columns and labels:
Format in all cases: cell-based
human GIPR = target: T1, human GIPR (Homo sapiens, UniProt P48546); test: cAMP assay (HitHunter) in transiently transfected COS-7 cells expressing human GIPR; conditions: for Emax: COS-7, normalized to highest concentration of the endogenous ligand, read-out: Efficacy GIPR (Emax); for EC50: cAMP, COS-7 cells, human GIPR
T1 construct: host or cells: COS-7
T1 sequence (P48546 22-466): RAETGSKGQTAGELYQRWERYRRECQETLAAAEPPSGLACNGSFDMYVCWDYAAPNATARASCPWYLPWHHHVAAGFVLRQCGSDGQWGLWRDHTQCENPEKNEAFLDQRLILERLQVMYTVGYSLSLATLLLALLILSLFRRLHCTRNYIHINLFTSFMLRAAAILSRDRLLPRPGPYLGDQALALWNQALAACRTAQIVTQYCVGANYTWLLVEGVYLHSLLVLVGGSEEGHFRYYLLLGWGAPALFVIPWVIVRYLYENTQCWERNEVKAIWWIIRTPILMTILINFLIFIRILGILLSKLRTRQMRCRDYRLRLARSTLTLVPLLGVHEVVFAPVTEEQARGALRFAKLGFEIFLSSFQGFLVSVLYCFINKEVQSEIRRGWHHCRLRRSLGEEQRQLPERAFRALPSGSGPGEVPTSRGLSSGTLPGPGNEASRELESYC

human GLP-2R = target: T2, human GLP-2R (Homo sapiens, UniProt O95838); test: cAMP assay (HitHunter) in transiently transfected COS-7 cells expressing human GLP-2R; conditions: for Emax: COS-7, normalized to highest concentration of the endogenous ligand, read-out: Efficacy GLP-2R (Emax); for EC50: cAMP, COS-7 cells, human GLP-2R
T2 construct: host or cells: COS-7
T2 sequence (O95838 1-553): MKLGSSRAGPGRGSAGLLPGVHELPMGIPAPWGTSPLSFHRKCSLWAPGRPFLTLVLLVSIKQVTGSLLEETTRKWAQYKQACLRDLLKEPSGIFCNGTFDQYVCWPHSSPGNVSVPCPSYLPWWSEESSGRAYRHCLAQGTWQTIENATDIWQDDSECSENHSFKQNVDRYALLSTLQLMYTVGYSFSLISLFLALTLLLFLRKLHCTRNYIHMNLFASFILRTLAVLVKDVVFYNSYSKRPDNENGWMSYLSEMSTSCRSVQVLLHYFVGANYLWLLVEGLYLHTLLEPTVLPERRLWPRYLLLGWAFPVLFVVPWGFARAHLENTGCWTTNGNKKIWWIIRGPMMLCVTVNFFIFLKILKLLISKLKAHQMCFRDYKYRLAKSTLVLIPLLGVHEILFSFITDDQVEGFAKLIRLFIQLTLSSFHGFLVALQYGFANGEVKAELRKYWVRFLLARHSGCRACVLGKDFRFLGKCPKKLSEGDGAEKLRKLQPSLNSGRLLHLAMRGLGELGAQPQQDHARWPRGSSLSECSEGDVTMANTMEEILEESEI

human GLP-1R = target: T3, human GLP-1R (Homo sapiens, UniProt P43220); test: cAMP assay (HitHunter) in transiently transfected COS-7 cells expressing human GLP-1R; conditions: for Emax: COS-7, normalized to highest concentration of the endogenous ligand, read-out: Efficacy GLP-1R (Emax); for EC50: cAMP, COS-7 cells, human GLP-1R
T3 construct: host or cells: COS-7
T3 sequence (P43220 24-463): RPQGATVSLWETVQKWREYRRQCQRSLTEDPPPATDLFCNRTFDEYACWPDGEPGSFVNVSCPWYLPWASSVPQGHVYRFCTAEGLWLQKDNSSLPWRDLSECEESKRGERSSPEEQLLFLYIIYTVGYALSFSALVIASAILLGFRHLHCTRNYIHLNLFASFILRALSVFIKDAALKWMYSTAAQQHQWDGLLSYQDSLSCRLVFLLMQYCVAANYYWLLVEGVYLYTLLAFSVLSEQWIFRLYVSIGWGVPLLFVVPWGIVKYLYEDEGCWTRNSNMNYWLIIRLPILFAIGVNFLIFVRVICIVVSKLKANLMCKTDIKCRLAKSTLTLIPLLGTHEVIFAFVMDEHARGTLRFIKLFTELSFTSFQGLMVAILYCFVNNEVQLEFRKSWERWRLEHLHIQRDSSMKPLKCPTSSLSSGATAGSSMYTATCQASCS

[1] = target: human glucagon receptor (GCGR) (Homo sapiens, UniProt P47871); test: Gs activation measured as cAMP accumulation on human glucagon receptor (FIG. 1 radar plot); conditions: read-out: −p Log EC50 on human glucagon receptor (GCGR) (converted)
human glucagon receptor (GCGR), sequence (P47871 26-477): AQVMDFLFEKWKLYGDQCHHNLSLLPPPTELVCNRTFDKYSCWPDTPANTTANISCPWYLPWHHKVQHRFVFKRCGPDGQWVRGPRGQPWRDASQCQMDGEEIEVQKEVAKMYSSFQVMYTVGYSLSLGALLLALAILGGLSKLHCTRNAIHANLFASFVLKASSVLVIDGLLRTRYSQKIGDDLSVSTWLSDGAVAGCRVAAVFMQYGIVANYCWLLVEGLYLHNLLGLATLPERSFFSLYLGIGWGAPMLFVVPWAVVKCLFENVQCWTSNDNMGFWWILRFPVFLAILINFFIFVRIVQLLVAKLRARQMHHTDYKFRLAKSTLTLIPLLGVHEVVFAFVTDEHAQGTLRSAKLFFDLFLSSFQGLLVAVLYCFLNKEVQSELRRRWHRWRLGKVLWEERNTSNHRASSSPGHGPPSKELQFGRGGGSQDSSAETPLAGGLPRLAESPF
Text: Here, the compounds 20, 21, 22, 28, 30, 31,32, 33, 34, 35 are shown in terms of their potencies in Gs activation, measured as CAMP accumulation, depicted in a radar plot. The numbers refer to −p Log EC50 values. […] The outer rings correspond to higher potencies, the inner rings correspond to lower potencies.

human SNAP-tagged GIPR = target: T4, human SNAP-tagged GIPR (Homo sapiens, UniProt P48546); test: Receptor internalization assay, HEK293A cells expressing human SNAP-tagged GIPR; conditions: for Absolute hGIPR internalization (AUC): AUC of sigmoid curves up to 1 μM, 60 minutes at 37° C.; for GIPR internalization (in words): compared to native GIP; for Relative hGIPR internalization (%): relative to hGIP 1-42 = 100
T4 construct: host or cells: HEK293A
T4 sequence (P48546 22-466): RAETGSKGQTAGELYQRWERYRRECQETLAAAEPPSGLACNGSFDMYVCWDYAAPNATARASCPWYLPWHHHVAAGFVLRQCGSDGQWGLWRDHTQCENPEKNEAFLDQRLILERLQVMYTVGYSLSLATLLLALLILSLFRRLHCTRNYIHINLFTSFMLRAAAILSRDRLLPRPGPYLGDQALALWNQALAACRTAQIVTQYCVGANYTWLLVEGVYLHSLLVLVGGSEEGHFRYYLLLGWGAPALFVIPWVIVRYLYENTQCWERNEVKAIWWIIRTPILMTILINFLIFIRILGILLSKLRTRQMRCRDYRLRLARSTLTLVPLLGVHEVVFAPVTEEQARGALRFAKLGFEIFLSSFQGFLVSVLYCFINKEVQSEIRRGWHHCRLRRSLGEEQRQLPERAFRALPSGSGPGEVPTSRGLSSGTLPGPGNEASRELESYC

human SNAP-tagged GLP-1R = target: T5, human SNAP-tagged GLP-1R (Homo sapiens, UniProt P43220); test: Receptor internalization assay, HEK293A cells expressing human SNAP-tagged GLP-1R; conditions: for Absolute hGLP-1R internalization (AUC): AUC of sigmoid curves up to 1 μM, 60 minutes at 37° C.; for GLP-1R internalization (in words): compared to native GLP-1; for Relative hGLP-1R internalization (%): relative to hGLP-1 = 100
T5 construct: expressed in transfected cells; host or cells: HEK293A
T5 sequence (P43220 24-463): as the sequence (P43220 24-463) above

human SNP-tagged GLP-2R = target: T6, human SNP-tagged GLP-2R (Homo sapiens, UniProt O95838); test: Receptor internalization assay, HEK293A cells expressing human SNAP-tagged GLP-2R; conditions: for Absolute hGLP-2R internalization (AUC): AUC of sigmoid curves up to 1 μM, 60 minutes at 37° C.; for GLP-2R internalization (in words): compared to native GLP-2; for Relative hGLP-2R internalization (%): relative to native ligand = 100
T6 construct: expressed in transfected cells; host or cells: HEK293A
T6 sequence (O95838 1-553): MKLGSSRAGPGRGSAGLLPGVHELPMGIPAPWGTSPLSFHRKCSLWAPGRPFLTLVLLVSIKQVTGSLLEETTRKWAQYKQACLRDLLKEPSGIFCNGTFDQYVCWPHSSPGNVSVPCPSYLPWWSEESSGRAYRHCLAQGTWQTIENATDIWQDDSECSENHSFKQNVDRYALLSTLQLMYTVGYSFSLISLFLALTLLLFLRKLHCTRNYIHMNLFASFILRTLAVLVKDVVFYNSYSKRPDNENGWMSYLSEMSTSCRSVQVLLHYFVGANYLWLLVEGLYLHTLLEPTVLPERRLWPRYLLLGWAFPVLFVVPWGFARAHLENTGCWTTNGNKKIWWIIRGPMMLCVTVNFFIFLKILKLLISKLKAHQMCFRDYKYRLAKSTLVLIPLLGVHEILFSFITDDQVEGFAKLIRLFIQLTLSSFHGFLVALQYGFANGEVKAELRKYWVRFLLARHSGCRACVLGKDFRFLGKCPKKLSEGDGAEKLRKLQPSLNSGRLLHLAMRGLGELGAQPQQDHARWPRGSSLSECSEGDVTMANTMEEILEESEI

[2] = read-out: logEC50 GLP-1R (converted)

Substance: HADGTFTSDYSIILDK([AEEA-AEEA-γGlu-C18 diacid])LAARDFINWLIQTKGKKNDWKHNITQ-OH [Compound 20]
- Emax (human GIPR): 112%
- EC50 (human GIPR): 0.126 nM
- Emax (human GLP-2R): 100%
- EC50 (human GLP-2R; read-out: logEC50 GLP-2R (converted)): 0.316 nM
- Emax (human GLP-1R): 112%
- EC50 (human GLP-1R; [2]): 0.0398 nM
- EC50 [1]: > 100000 pM
- Absolute hGIPR internalization (AUC) (human SNAP-tagged GIPR): 14.2
- GIPR internalization (in words) (human SNAP-tagged GIPR): reduced internalization compared to native GIP
- Relative hGIPR internalization (%) (human SNAP-tagged GIPR): 38%
- Absolute hGLP-1R internalization (AUC) (human SNAP-tagged GLP-1R): 91.8
- GLP-1R internalization (in words) (human SNAP-tagged GLP-1R): comparable to native GLP-1 and GLP-2
- Relative hGLP-1R internalization (%) (human SNAP-tagged GLP-1R): 109.14%
- Absolute hGLP-2R internalization (AUC) (human SNP-tagged GLP-2R): 39.4
- GLP-2R internalization (in words) (human SNP-tagged GLP-2R): comparable to native GLP-1 and GLP-2
- Relative hGLP-2R internalization (%) (human SNP-tagged GLP-2R): 81.0%

Substance: HADGTFTSDYSTILDK([AEEA-AEEA-γGlu-C18 diacid])LAARDFINWLIQTKGKKNDWKHNITQ-OH [Compound 21]
- Emax (human GIPR): 104%
- EC50 (human GIPR): 0.398 nM
- Emax (human GLP-2R): 104%
- EC50 (human GLP-2R; read-out: EC50 (nM) GLP-2R): 0.6 nM
- Emax (human GLP-1R): 122%
- EC50 (human GLP-1R; read-out: EC50 (nM) GLP-1R): 0.05 nM
- EC50 [1]: > 100000 pM
- Absolute hGIPR internalization (AUC) (human SNAP-tagged GIPR): 10.2
- GIPR internalization (in words) (human SNAP-tagged GIPR): reduced internalization compared to native GIP
- Relative hGIPR internalization (%) (human SNAP-tagged GIPR): 28%
- Absolute hGLP-1R internalization (AUC) (human SNAP-tagged GLP-1R): 94.7
- GLP-1R internalization (in words) (human SNAP-tagged GLP-1R): comparable to native GLP-1 and GLP-2
- Relative hGLP-1R internalization (%) (human SNAP-tagged GLP-1R): 112.59%
- Absolute hGLP-2R internalization (AUC) (human SNP-tagged GLP-2R): 36.3
- GLP-2R internalization (in words) (human SNP-tagged GLP-2R): comparable to native GLP-1 and GLP-2
- Relative hGLP-2R internalization (%) (human SNP-tagged GLP-2R): 74.6%

Substance: HADGTFTSDYST[Aib]LDK([AEEA-AEEA-γGlu-C18 diacid])LAARDFINWLIQTKGKKNDWKHNITQ-OH [Compound 22]
- Emax (human GIPR): 93%
- EC50 (human GIPR): 1.12 nM
- Emax (human GLP-2R): 93%
- EC50 (human GLP-2R; read-out: EC50 (nM) GLP-2R): 0.6 nM
- Emax (human GLP-1R): 116%
- EC50 (human GLP-1R; read-out: EC50 (nM) GLP-1R): 0.04 nM
- EC50 (human GLP-1R; [2]): 0.0316 nM
- EC50 [1]: > 100000 pM
- Absolute hGIPR internalization (AUC) (human SNAP-tagged GIPR): 7.0
- GIPR internalization (in words) (human SNAP-tagged GIPR): reduced internalization compared to native GIP
- Relative hGIPR internalization (%) (human SNAP-tagged GIPR): 19%
- Absolute hGLP-1R internalization (AUC) (human SNAP-tagged GLP-1R): 78.81
- GLP-1R internalization (in words) (human SNAP-tagged GLP-1R): comparable to native GLP-1 and GLP-2
- Relative hGLP-1R internalization (%) (human SNAP-tagged GLP-1R): 93.70%
- Absolute hGLP-2R internalization (AUC) (human SNP-tagged GLP-2R): 38.0
- GLP-2R internalization (in words) (human SNP-tagged GLP-2R): comparable to native GLP-1 and GLP-2
- Relative hGLP-2R internalization (%) (human SNP-tagged GLP-2R): 78.2%

Reference: patent US20250304644A1, “PEPTIDES TRIPLE AGONISTS OF GIP, GLP-1 AND GLP-2” (BAINAN BIOTECH APS, priority 2021, published 2025)
